Results published in patent US5843925A, “Methods for inhibiting angiogenesis, proliferation of endothelial or tumor cells and tumor growth” (American Cyanamid Company, priority 1994, dated 1998).
≈ marks a conversion by molar mass, not a printed value. Counter-ions that a name gives are not always drawn.

How the values were obtained:
A2780/DDP = assay: Antiproliferative activity in human tumor cell lines (A2780/DDP); format: cell-based; conditions: A2780/DDP ovarian tumor cell line
Protocol: (§1) PROTOCOLS 1, 2, and 3 are described in greater detail hereinbelow. In general, according to PROTOCOLS 1 and 2, the target ABAE and/or Human Tumor cells are exposed to the compound of Formula I for 48 hours. PROTOCOL 3 exposes ABAE cells to the compounds for 4 days. A detailed description of the protocol is as follows:
(§2) The antiproliferative activity of the compounds of Formula I of the present invention is evaluated in a panel comprised of human tumor cell lines and an adult bovine aortic endothelial cell line (ABAE). The human tumor cell lines are from
(§3) Cultures are renewed after 20 passages with cells from a fresh stock of batch-frozen early passage cells. Cell lines are routinely checked for mycoplasma contamination (Genprobe). In a laminar flow hood, cells (1-5×10^4) are plated into 96-well microtiter plates in a volume of 0.1 ml/well with a bulk microtiter dispenser (Denley). […] Compounds are added using a Tomtec dispenser which simultaneously dispenses from one 96-well plate, containing the drug dilutions, to the plates containing the cells. After two days of continuous drug exposure, 50% cold trichloroacetic acid (TCA) is added to 10% final concentration to fix the cells, and after 60 minutes at 4° C., the TCA is aspirated and the plates are washed 5 times with deionized water using a microtiter plate washer. […] A 0.4% solution of the dye, sulforhodamine B, in […] is added to the plates, and the plates are washed 5 times with 1% glacial acetic acid using the automatic plate washed. The bound stain is solubilized with 0.1 ml of 10 mM Tris base. The optical densities are read from an automatic spectrophotometric plate reader (Dynatech) directly to a main frame computer (VAX 8600).
(§4) Positive controls, that include standard chemotherapeutic drugs (i.e., adriamycin, cisplatin, etc.), are included in every experiment.
(§5) Background optical density measurements (complete media-cells, and complete media+drug-cells) are automatically subtracted from the appropriate control and test wells. Mean values and standard errors are determined from duplicate wells. A measure is also made of the optical density at time when the drugs are added. The number of cells after treatment (P), as % of control, is calculated for every concentration of drug, as follows: [formula] wherein: T is optical density measurement for treated cells after 48 hours;
(§6) C is optical density measurement for untreated cells after 48 hours;
(§7) Co is optical density measurement for cells at the time of drug addition.
(§8) IC50 of growth inhibition is calculated from the sets of P values using the RS-1 data package (BBN Software).
(§9) Antiproliferative Activity in Human Tumor Cell Lines
(§10) The antiproliferative activity of the compounds of Formula I is evaluated in the panel comprised of human tumor cell lines as listed in PROTOCOL 1. This assay is a slight modification of PROTOCOL 1. The modifications include:
(§11) 1) each concentration for each compound is tested in a single well;
(§12) 2) compounds are tested at 20, 4, 0.8, 0.16 microgram/ml and additionally in some experiments at 100 and 0.32 microgram/ml;
(§13) 3) samples are pipetted into a 96-well plate for each of the cell lines by a Beckman Biomek 1000 SL robot;
(§14) 4) after fixing with TCA each well is washed with 0.35 ml distilled water twice, not five times;
(§15) 5) after staining with sulforhodamine B each well is washed 3 times, not five times;
(§16) 6) the growth inhibition (I) as % of control, is calculated using the RS-1 data package (BBN Software), for every concentration of drug, as follows: [formula] wherein: T is optical density measurement for treated cells after 48 hours;
(§17) 7) IC50 of growth inhibition is determined graphically from dose response curves, as is known in the art.

HTB 161 = assay: Antiproliferative activity in human tumor cell lines (HTB 161); format: cell-based
Protocol: as §1, §2, §3, §4, §5, §6, §7, §8, §9, §10, §11, §12, §13, §14, §15, §16, §17

MIP = assay: Antiproliferative activity in human tumor cell lines (MIP); format: cell-based; conditions: MIP colon tumor cell line
Protocol: as §1, §2
(§18) All cell lines are maintained in log phase in RPMI 1640 media, supplemented with 5% fetal calf serum, penicillin/streptomycin and 2 mM L-glutamine. Cultures are renewed after 20 passages with cells from a fresh stock of batch-frozen early passage cells. Cell lines are routinely checked for mycoplasma contamination (Genprobe). In a laminar flow hood, cells (1-5×10^4) are plated into 96-well microtiter plates in a volume of 0.1 ml/well with a bulk microtiter dispenser (Denley). […] At this concentration, dimethylsulfoxide has no effect on cell growth. Compounds are added using a Tomtec dispenser which simultaneously dispenses from one 96-well plate, containing the drug dilutions, to the plates containing the cells. After two days of continuous drug exposure, 50% cold trichloroacetic acid (TCA) is added to 10% final concentration to fix the cells, and after 60 minutes at 4° C., the TCA is aspirated and the plates are washed 5 times with deionized water using a microtiter plate washer. The number of cells on the plate are quantitated using a protein dye-binding assay (Monks et al., 1991). A 0.4% solution of the dye, sulforhodamine B, in glacial acetic acid is added to the plates, and the plates are washed 5 times with 1% glacial acetic acid using the automatic plate washed. The bound stain is solubilized with 0.1 ml of 10 mM Tris base. The optical densities are read from an automatic spectrophotometric plate reader (Dynatech) directly to a main frame computer (VAX 8600).
as §4, §5, §6, §7, §8, §9, §10, §11, §12, §13, §14, §15
(§19) 6) the growth inhibition (I) as % of control, is calculated using the RS-1 data package (BBN Software), for every concentration of drug, as follows: [formula] wherein: T is optical density measurement for treated cells after 48 hours; […]

Human Tumor cell lines = assay: Antiproliferative activity in panel of human tumor cell lines (PROTOCOL 1 and PROTOCOL 2); format: cell-based; conditions: for IC50: Homo sapiens, average over the tumor cell lines of Table 3
Protocol: (§20) The antiproliferative activity of the compounds of Formula I in an Adult Bovine Aortic Endothelial (ABAE) cell line and in Human Tumor cells lines is evaluated in three similar assays that measure growth inhibition. The assays are identified as follows:
as §1, §2, §18, §4, §5, §6, §7, §8, §9, §10, §11, §12, §13, §14
5) after staining with sulforhodamine B each well is washed 3 times, not five times; […]

A2780S = assay: Antiproliferative activity in human tumor cell lines (A2780S); format: cell-based; conditions: A2780S ovarian tumor cell line
Protocol: as §1, §2, §3, §4, §5, §6, §7, §8, §9, §10, §11, §12, §13, §14, §15, §16, §17

SW620 = assay: Antiproliferative activity in human tumor cell lines (SW620); format: cell-based; conditions: SW-620, SW620 colon tumor cell line
Protocol: as §1, §2, §18, §4, §5, §6, §7, §8, §9, §10, §11, §12, §13, §14, §15, §19

CACO2 = assay: Antiproliferative activity in human tumor cell lines (CACO2); format: cell-based; conditions: Caco-2, CACO2 colon tumor cell line
Protocol: as §1, §2, §18, §4, §5, §6, §7, §8, §9, §10, §11, §12, §13, §14, §15, §19

angiogenesis = conditions: Cancer Research 51, 672-675, Brem et al; cited from earlier work
[1] = system: Adult Bovine Aortic Endothelial (ABAE) cell line; assay: Antiproliferative activity in Adult Bovine Aortic Endothelial (ABAE) cell line, PROTOCOL 3; format: cell-based; conditions: 4 day assay (Protocol 3)
Protocol: as §20, §1
Antiproliferative Activity in Adult Bovine Aortic Endothelial (ABAE) Cell Line
ABAE cells are grown in DMEM media (Mediatech Washington, D.C.) supplemented with 10% calf serum (Hyclone). ABAE cells are plated in 24-well dishes at 8,000 cells/well, followed by the addition of increasing concentrations of 7-[substituted amino]-9-[(substituted glycyl)amido]-6-demethyl-6-deoxytetra-cyclines. After four days, the cells are detached and counted. […] The growth inhibition (I) as % of control is calculated as follows: [formula] wherein: Nc is the number of cells in untreated wells;
Nt is the number of cells in treated wells;
No is the number of plated cells.
IC50 of growth inhibition is determined from the sets of I values plotted by Kaleidograph software (Abelbeck Software).
Table 2 presents the results depicting the antiproliferative activity of the compounds of Formula I against an adult bovine aortic endothelial cell line (ABAE), as evaluated by PROTOCOL 1 and PROTOCOL 3. The results are presented in terms of IC50 and are as follows.

[2] = highest concentration, human tumor cell lines

| SMILES | IC50 (A2780/DDP) | IC50 (HTB 161) | IC50 (MIP) | IC50 (Human Tumor cell lines) | IC50 (A2780S) | IC50 (SW620) | IC50 (CACO2) | cell growth at highest concentration (Human Tumor cell lines; [2]) | dead floating cells (Human Tumor cell lines; [2]) | inhibition of cell growth (Human Tumor cell lines; highest concentrations, 6 human tumor cell lines, FIG. 2) | inhibition of angiogenesis vs combination therapy of heparin and cortisone (angiogenesis) | activity upon incubation with cells [1] |
| --- | --- | --- | --- | --- | --- | --- | --- | --- | --- | --- | --- | --- |
| CN(C)c1cc(NC(=O)CN2CCCC2)c(O)c2c1CC1CC3[C@H](N(C)C)C(O)=C(C(N)=O)C(=O)[C@@]3(O)C(O)=C1C2=O (stereo partly drawn) [Example 3, [7S-(7α,10aα)]-N-[9-(Aminocarbonyl)-4,7-bis(dimethylamino)-5,5a,6,6a,7,10,10a,12-octahydro-1,8-10a,11-tetrahydroxy-10,12-dioxo-2-naphthacenyl]-1-pyrrolidineacetamide dihydrochloride] | 2.7 mg/L | 2.3 mg/L | 2.45 mg/L | 2.4 mg/L | 2.4 mg/L | 2.3 mg/L | – | – | – | – | – | – |
| CCCN(CCC)c1cc(NC(=O)CN(C)C)c(O)c2c1CC1CC3[C@H](N(C)C)C(O)=C(C(N)=O)C(=O)[C@@]3(O)C(O)=C1C2=O (stereo partly drawn) [Example 6, [4S-(4α,12aα)]-4-(Dimethylamino)-9-[[(dimethylamino)acetyl]amino]-7-(dipropylamino)-1,4,4a,5,5a,6,11,12a-octahydro-3,10,12,12a-tetrahydroxy-1,11-dioxo-2-naphthacenecarboxamide sulfate (1:1)] | 3 mg/L | 3 mg/L | 10 mg/L | 5.1 mg/L | 3.5 mg/L | 3 mg/L | 8 mg/L | – | – | – | – | – |
| CCCCN(CC1CC1)c1cc(NC(=O)CN(C)C)c(O)c2c1CC1CC3C(N(C)C)C(O)=C(C(N)=O)C(=O)C3(O)C(O)=C1C2=O (stereo not drawn) [Example 7, 7-[Butyl(cyclopropylmethyl)amino]-4-(dimethylamino)-9 [[(dimethylamino)acetyl]amino]-1,4,4a,5,5a,6,-11,12a-octahydro-3,10,12,12a-tetrahydroxy-1,11-dioxo-2-naphthacenecarboxamide sulfate (1:2)] | 3 mg/L | 3 mg/L | 8 mg/L | 5.1 mg/L | 3 mg/L | 3.5 mg/L | 10 mg/L | – | – | – | – | – |
| CC(C)CN(CC(C)C)c1cc(NC(=O)CN(C)C)c(O)c2c1CC1CC3[C@H](N(C)C)C(O)=C(C(N)=O)C(=O)[C@@]3(O)C(O)=C1C2=O (stereo partly drawn) [Example 8, [4S-(4α,12aα)]-7-[Bis(2-methylpropyl)amino]-4-(dimethylamino)9-[[(dimethylamino)acetyl]amino]-1,4,4a,5,5a,6,11,12a-octahydro-3,10,12,12a-tetrahydroxy-1,11-dioxo-2-naphthacenecarboxamide sulfate] | 1.5 mg/L | 2.5 mg/L | 10 mg/L | 4 mg/L | 2.5 mg/L | 1.5 mg/L | 6 mg/L | the cells continue to grow | Dead floating cells were not observed | no 100% inhibition of cell growth | – | – |
| CN(C)c1ccc(O)c2c1C[C@H]1C[C@H]3[C@H](N(C)C)C(O)=C(C(N)=O)C(=O)[C@@]3(O)C(O)=C1C2=O [Minocycline, reference compound] | – | – | – | – | – | – | 9 mg/L (≈ 19.7 µM) | – | – | – | inhibits angiogenesis to an extent comparable to that of the combination therapy of heparin and cortisone | losing its activity upon incubation with cells |
